Experiment [1] has as its system IL-1β release upon NLRP3 activation in peripheral blood mononuclear cells (PBMC). Kind of experiment: PBMC IC50 Determination Assay. The class given is cell-based. To be noted: Homo sapiens; inhibition of IL-1β release; PBMC primed with LPS, stimulated with ATP or nigericin; ELISA or HTRF. How it is done: The compounds of the present disclosure were tested for their inhibitory activity against IL-1β release upon NLRP3 activation in peripheral blood mononuclear cells (PBMC).
Protocol A. PBMC were isolated from buffy coats by density gradient centrifugation on Histopaque-1077 (Sigma, cat no. 10771). Isolated cells were seeded into the wells of a 96-well plate and incubated for 3 h with lipopolysaccharide (LPS). Following medium exchange, the compounds of the present disclosure were added (a single compound per well) and the cells were incubated for 30 min. Next, the cells were stimulated either with ATP (5 mM) or nigericin (10 μM) for 1 h and the cell culture media from the wells were collected for further analysis.
The release of IL-1β into the media was determined by a quantitative detection of IL-1β in the media using an IL-1β enzyme-linked immunosorbent assay (ELISA) Ready-SET-Go!, eBioscience cat. No. 88-7261-88. Briefly, in a first step, high affinity binding plates (Corning, Costar 9018 or NUNC Maxisorp Cat No. 44-2404) were coated overnight at 4° C. with specific capture antibody included in the kit (anti-human IL-1β ref. 14-7018-68). Subsequently, plates were blocked with blocking buffer for 1 h at room temperature (rt) and after washing with a buffer (PBS with 0.05% Tween-20) incubated with protein standard and culture media. After 2 h of incubation at rt, plates were washed and incubated with biotinylated detection antibody included in the kit (anti-human IL-1β Biotin ref. 33-7110-68) for 1 h at rt. Plates were washed and incubated with HRP-streptavidin for 30 min at rt and washed again. The signal was developed after addition of 3,3′,5,5′-tetramethylbenzidine-peroxidase (TMB) until colour appeared and the reaction was stopped by 2 M H2SO4. A microplate spectrophotometer (BioTek) was used to detect signals with 450 nm. The detection range of IL-1β ELISA was […].
Protocol B. PBMC were isolated from buffy coats by density gradient centrifugation on Histopaque-1077 (Sigma, cat no. 10771). Isolated cells were seeded into the wells (280,000 cells/well) of a 96-well plate and incubated for 3 h with lipopolysaccharide (LPS, 1 μg/mL diluted 1000× from a 1 mg/mL stock solution). The compounds of the present disclosure were added (a single compound per well) and the cells were incubated for 30 min. Next, the cells were stimulated with ATP (5 mM final concentration diluted 20× from a 100 mM stock solution) for 1 h and the cell culture media from the wells were collected for further analysis.
The release of IL-1β into the media was determined by quantitative detection of IL-1β in the media using HTRF®, CisBio cat. No. 62HIL1BPEH. Briefly, cell culture supernatant were dispensed directly into the assay plate containing antibodies labelled with the HTRF® donor and acceptor. A microplate spectrophotometer (BMG) was used to detect signals at 655 nm and 620 nm. The detection range of IL-1β HTRF® was 39-6500 pg/mL.

Experiment [2] deals with IL-1β release upon NLRP3 activation in phorbol 12-myristate 13-acetate (PMA)-differentiated THP-1 cells. Put plainly: THP-1 IC50 Determination Assay. It counts as cell-based. To be noted: Homo sapiens, inhibition of IL-1β release, LPS, nigericin, ELISA. How it is done: The compounds of the present disclosure were tested for their inhibitory activity against IL-1β release upon NLRP3 activation in phorbol 12-myristate 13-acetate (PMA)-differentiated THP-1 cells.
THP-1 cells stored in liquid nitrogen were thawed in a 37° C. water bath. The cells were added into complete RPMI 1640 medium (FBS (56 mL), 100× Penicillin-Streptomycin (5.6 mL) and 0.05 mM 2-Mercaptoethanol in RPMI 1640 Medium (500 mL)) and centrifuged for 5 min at 1000 rpm. The supernatant was discarded and the cells resuspended into new cell culture medium for culturing. Cells were cultured in cell culture medium and passaged every 3-4 days to maintain cell density between 4×10^5 and 1.5×10^6 cells/mL. The cells were diluted to 0.8×10^6 cells/mL and grown in a T150 flask with PMA (final concentration 5 ng/mL). The flask was incubated in a 37° C. incubator with a humidified atmosphere of 5% CO2 for −40 hours. After −40 hours of PMA differentiation, the flask was washed with DPBS. Cells were digested with Trypsin LE for about 5 min at room temperature, and digestion was terminated using complete RPMI 1640 medium. Cells were centrifuged and resuspended (1000 rpm, 3 min). The supernatant was discarded and cells washed with DPBS, centrifuged and resuspended cells (1000 rpm, 5 min). Cells were plated at 30,000 cells/well in a 384-well PP plate and treated with 25 ng/mL LPS solution diluted in serum-free medium (45 μL). The plate was incubated in a 37° C. incubator with a humidified atmosphere of 5% CO2 for 2 hours. Compounds (from 10 mM DMSO solution) were dispensed and serially diluted by 1:3 eight times, with final 0.5% DMSO concentration. NLRP3 inflammasome was activated with nigericin (5 μL), the plate was centrifuged (1000 rpm, 30 s) and incubated in a 37° C. incubator with a humidified atmosphere of […] for 2 hours. 35 μL/well of supernatant was removed and IL-1β levels determined by ELISA assay (Mabtech 3416-1H-20) according to the manufacturer's instructions.

pIC50: −log10 of the molar value. Where a name gives a salt, the structure may show the parent alone.

For the molecule `Cc1cc(Cl)cc(O)c1-c1cc2ccn(CCN(C)C)c2nn1` [Compound 22, 5-Chloro-2-{7-[2-(dimethylamino)ethyl]-7H-pyrrolo[2,3-c]pyridazin-3-yl}-3-methylphenol hydrochloride], the pIC50 in experiment [1] and in experiment [2] was 6.00 to 6.52 throughout.
`COCCCn1ccc2cc(-c3c(C)cc(Cl)cc3O)nnc21` [Compound 23, 5-Chloro-2-[7-(3-methoxypropyl)-7H-pyrrolo[2,3-c]pyridazin-3-yl]-3-methylphenol]: the pIC50 in experiment [1] and in experiment [2] was 6.00 to 6.52 each time.
In the case of `Cc1cc(Cl)cc(O)c1-c1cc2ccn(CC3CCCCO3)c2nn1` (stereo not drawn) [Compound 25, 5-Chloro-3-methyl-2-{7-[(oxan-2-yl)methyl]-7H-pyrrolo[2,3-c]pyridazin-3-yl}phenol], the pIC50 in experiment [1] and in experiment [2] was 6.52 to 7.00 in each case.
With `Cc1cc(Cl)cc(O)c1-c1cc2ccn(CC3CCN(CC#N)CC3)c2nn1` [Compound 26, 2-(4-{[3-(4-Chloro-2-hydroxy-6-methylphenyl)-7H-pyrrolo[2,3-c]pyridazin-7-yl]methyl}piperidin-1-yl)acetonitrile], the pIC50 in experiment [1] and in experiment [2] was 6.00 to 6.52 each time.
Regarding `Cc1cc(Cl)cc(O)c1-c1cc2ccn(CC3(F)CCN(C)CC3)c2nn1` [Compound 27, 5-Chloro-2-{7-[(4-fluoro-1-methylpiperidin-4-yl)methyl]-7H-pyrrolo[2,3-c]pyridazin-3-yl}-3-methylphenol hydrochloride], the figures for the pIC50 in experiment [1] and in experiment [2] were 7.00 to 7.52 and 6.52 to 7.00, respectively.
Turning to `Cc1cc(Cl)cc(O)c1-c1cc2ccn(CC3CN(C)C3)c2nn1` [Compound 28, 5-Chloro-3-methyl-2-{7-[(1-methylazetidin-3-yl)methyl]-7H-pyrrolo[2,3-c]pyridazin-3-yl}phenol hydrochloride], the pIC50 in experiment [1] and in experiment [2] was 6.00 to 6.52 throughout.
Consider `Cc1cc(Cl)cc(O)c1-c1cc2ccn(CCCN(C)C)c2nn1` [Compound 29, 5-Chloro-2-{7-[3-(dimethylamino)propyl]-7H-pyrrolo[2,3-c]pyridazin-3-yl}-3-methylphenol hydrochloride], for which the pIC50 in experiment [1] and in experiment [2] was 5.52 to 6.00 in each case.
With `Cc1cc(Cl)cc(O)c1-c1cc2ccn(CC(=O)N3CCCC3)c2nn1` [Compound 30, 2-[3-(4-Chloro-2-hydroxy-6-methylphenyl)-7H-pyrrolo[2,3-c]pyridazin-7-yl]-1-(pyrrolidin-1-yl)ethan-1-one], the pIC50 in experiment [1] and in experiment [2] was 6.00 to 6.52 each time.
With `Cc1cc(Cl)cc(O)c1-c1cc2ccn(CC3CCN(S(C)(=O)=O)CC3)c2nn1` [Compound 31, 5-Chloro-2-{7-[(1-methanesulfonylpiperidin-4-yl)methyl]-7H-pyrrolo[2,3-c]pyridazin-3-yl}-3-methylphenol], the pIC50 in experiment [1] and in experiment [2] was 6.52 to 7.00 throughout.
`Cc1cc(Cl)cc(O)c1-c1cc2ccn(CC(=O)N(C)C)c2nn1` [Compound 32, 2-[3-(4-Chloro-2-hydroxy-6-methylphenyl)-7H-pyrrolo[2,3-c]pyridazin-7-yl]-N,N-dimethylacetamide]: the pIC50 in experiment [1] and in experiment [2] was 6.52 to 7.00 throughout.
`Cc1cc(Cl)cc(O)c1-c1cc2ccn(CCN3CCCC(F)C3)c2nn1` (stereo not drawn) [Compound 33, 5-Chloro-2-{7-[2-(3-fluoropiperidin-1-yl)ethyl]-7H-pyrrolo[2,3-c]pyridazin-3-yl}-3-methylphenol hydrochloride]: the pIC50 was 7.00 to 7.52 in experiment [1] and 6.00 to 6.52 in experiment [2].
For `Cc1cc(Cl)cc(O)c1-c1cc2ccn(CC3CN(C)CCO3)c2nn1` (stereo not drawn) [Compound 34, 5-Chloro-3-methyl-2-{7-[(4-methylmorpholin-2-yl)methyl]-7H-pyrrolo[2,3-c]pyridazin-3-yl}phenol hydrochloride] the same measures were 6.00 to 6.52 and 6.00 to 6.52.
Consider `Cc1cc(Cl)cc(O)c1-c1cc2ccn(CC3CCN(C)CC3(F)F)c2nn1` (stereo not drawn) [Compound 35, 5-Chloro-2-{7-[(3,3-difluoro-1-methylpiperidin-4-yl)methyl]-7H-pyrrolo[2,3-c]pyridazin-3-yl}-3-methylphenol hydrochloride], for which the values for the pIC50 in experiment [1] and in experiment [2] were 6.52 to 7.00 and 6.00 to 6.52, respectively.
For `Cc1cc(Cl)cc(O)c1-c1cc2ccn(CC(=O)N3CCCCC3)c2nn1` [Compound 36, 2-[3-(4-Chloro-2-hydroxy-6-methylphenyl)-7H-pyrrolo[2,3-c]pyridazin-7-yl]-1-(piperidin-1-yl)ethan-1-one] the same measures were 6.00 to 6.52 and 6.00 to 6.52.
For `Cc1cc(Cl)cc(O)c1-c1cc2ccn(CC3CCOCC3)c2nn1` [Compound 37, 5-Chloro-3-methyl-2-{7-[(oxan-4-yl)methyl]-7H-pyrrolo[2,3-c]pyridazin-3-yl}phenol] the same measures were 6.52 to 7.00 and 6.00 to 6.52.
The matching figures for `Cc1cc(Cl)cc(O)c1-c1cc2ccn(CCN3CCCCC3)c2nn1` [Compound 38, 5-Chloro-3-methyl-2-{7-[2-(piperidin-1-yl)ethyl]-7H-pyrrolo[2,3-c]pyridazin-3-yl}phenol hydrochloride]: 6.00 to 6.52 and 6.00 to 6.52.
For the molecule `Cc1cc(Cl)cc(O)c1-c1cc2ccn(CC3CCCN3C)c2nn1` (stereo not drawn) [Compound 39, 5-Chloro-3-methyl-2-{7-[(1-methylpyrrolidin-2-yl)methyl]-7H-pyrrolo[2,3-c]pyridazin-3-yl}phenol hydrochloride], the pIC50 in experiment [1] was 6.52 to 7.00; in experiment [2] it was 6.00 to 6.52.
`Cc1cc(Cl)cc(O)c1-c1cc2ccn(CCN3CCCC3=O)c2nn1` [Compound 40, 1-{2-[3-(4-Chloro-2-hydroxy-6-methylphenyl)-7H-pyrrolo[2,3-c]pyridazin-7-yl]ethyl}pyrrolidin-2-one]: the pIC50 in experiment [1] and in experiment [2] was 5.52 to 6.00 throughout.
Turning to `Cc1cc(Cl)cc(O)c1-c1cc2ccn(CC3COCCN3C)c2nn1` (stereo not drawn) [Compound 41, 5-Chloro-3-methyl-2-{7-[(4-methylmorpholin-3-yl)methyl]-7H-pyrrolo[2,3-c]pyridazin-3-yl}phenol hydrochloride], the values for the pIC50 in experiment [1] and in experiment [2] were 6.52 to 7.00 and 6.00 to 6.52, respectively.
The matching figures for `Cc1cc(Cl)cc(O)c1-c1cc2ccn(CC3CCCOC3)c2nn1` (stereo not drawn) [Compound 42, 5-Chloro-3-methyl-2-{7-[(oxan-3-yl)methyl]-7H-pyrrolo[2,3-c]pyridazin-3-yl}phenol]: 6.52 to 7.00 and 6.00 to 6.52.
As for `Cc1cc(Cl)cc(O)c1-c1cc2ccn(CC3CCCO3)c2nn1` (stereo not drawn) [Compound 43, 5-Chloro-3-methyl-2-{7-[(oxolan-2-yl)methyl]-7H-pyrrolo[2,3-c]pyridazin-3-yl}phenol], the pIC50 in experiment [1] and in experiment [2] was 6.52 to 7.00 each time.

These data come from patent US20250206745A1, “PYRROLOPYRIDAZINE DERIVATIVES AND RELATED USES” (NodThera Limited, priority 2023, published 2025).
